Experimental data from patent publication US11648254B2 (Kumquat Biosciences Inc., priority 2021, dated 2023).
Read-outs that look alike come from different tables or passages of the source.

Assays:
[1] = target: SOS1 (Homo sapiens (Human), UniProt Q07889); assay: Ras-SOS interaction assay (HTRF); type: biochemical
[2] = system: MIA PaCa-2 cells (K-Ras G12C); assay: Ras-SOS cellular growth inhibition assay (CellTiter-Glo, 3D); type: cell-based; conditions: Homo sapiens
Method in brief: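 MIA PaCa-2 cells grown in ultra-low-attachment plates (3D) in DMEM/Ham's F12 with 10% FCS and 2.5% horse serum, treated the day after seeding with a 9-point 3-fold compound series for about 5 days. Viability by CellTiter-Glo luminescence; IC50 from four-parameter fit.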

[3] = system: NCI-H1975 cells (EGFR T790M L858R); assay: EGFR-SOS cellular inhibition assay (CellTiter-Glo, 3D); type: cell-based; conditions: Homo sapiens
[4] = K-RasG13D utilized, read-out: IC50 inhibition of SOS
[5] = K-RasG13D, read-out: IC50 value against SOS1
[6] = MIA PaCa-2, 120 h, MIA PaCa-2, 3D proliferation, about 5 days, read-out: Bio-Cell-Prolif-3D (MiaPaca2 IC50)
[7] = MIA PaCa-2, MIA PaCa-2, read-out: IC50 in inhibiting MIA PaCa-2 cell growth
[8] = 120 h, NCI-H1975, 3D proliferation, about 5 days, read-out: Bio-Cell-Prolif-3D (H1975 IC50)
[9] = NCI-H1975, EGFR T790M L858R, read-out: IC50 in inhibiting growth of NCI-H1975 cell line

Sequence of SOS1 (Q07889 564-1049): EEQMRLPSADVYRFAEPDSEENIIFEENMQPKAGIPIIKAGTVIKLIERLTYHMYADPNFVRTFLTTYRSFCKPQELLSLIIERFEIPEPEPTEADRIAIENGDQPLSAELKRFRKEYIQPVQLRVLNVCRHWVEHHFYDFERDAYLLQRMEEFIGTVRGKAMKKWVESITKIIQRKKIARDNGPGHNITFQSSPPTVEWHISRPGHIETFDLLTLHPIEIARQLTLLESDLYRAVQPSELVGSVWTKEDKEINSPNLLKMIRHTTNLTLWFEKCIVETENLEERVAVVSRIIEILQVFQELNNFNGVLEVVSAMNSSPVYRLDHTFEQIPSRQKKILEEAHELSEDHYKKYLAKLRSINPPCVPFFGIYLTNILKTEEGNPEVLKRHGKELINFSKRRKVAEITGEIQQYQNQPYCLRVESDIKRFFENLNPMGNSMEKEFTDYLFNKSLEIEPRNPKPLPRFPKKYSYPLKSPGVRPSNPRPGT

SMILES | IC50 [1, 4] | IC50 [1, 5] | IC50 [2, 6] | IC50 [2, 7] | IC50 [3, 8] | IC50 [3, 9]
COc1nc2nc(C)nc(N[C@H](C)c3cccc(C(F)(F)CCC4CN(C)C4)c3F)c2cc1C1CCS(=O)(=O)CC1 [Compound 180, (R)-4-(4-((1-(3-(1,1-difluoro-3-(1-methylazetidin-3-yl)propyl)-2-fluorophenyl)ethyl)amino)-7-methoxy-2-methylpyrido[2,3-d]pyrimidin-6-yl)tetrahydro-2H-thiopyran 1,1-dioxide] | < 100 nM | < 50 nM | ≤ 1000 nM | < 500 nM | ≤ 1000 nM | < 500 nM
COc1nc2nc(C)nc(N[C@H](C)c3cccc(C(F)(F)C4(O)CC4)c3F)c2cc1N1CCN(C(C)C)CC1 [Compound 209, (R)-1-(difluoro(2-fluoro-3-(1-((6-(4-isopropylpiperazin-1-yl)-7-methoxy-2-methylpyrido[2,3-d]pyrimidin-4-yl)amino)ethyl)phenyl)methyl)cyclopropan-1-ol] | < 100 nM | < 50 nM | ≤ 1000 nM | < 500 nM | ≤ 1000 nM | < 500 nM
COc1nc2nc(C)nc(N[C@H](C)c3cccc(C(F)(F)CO)c3)c2cc1N1CCN(C(C)C)CC1 [Compound 345, (R)-2,2-difluoro-2-(3-(1-((6-(4-isopropylpiperazin-1-yl)-7-methoxy-2-methylpyrido[2,3-d]pyrimidin-4-yl)amino)ethyl)phenyl)ethan-1-ol] | < 100 nM | < 50 nM | ≤ 1000 nM | < 500 nM | ≤ 1000 nM | < 500 nM
COc1nc2nc(C)nc(N[C@H](C)c3cccc(C(F)(F)C4CCN(C)CC4)c3F)c2cc1C1(C#N)CC1 [Compound 210, (R)-1-(4-((1-(3-(difluoro(1-methylpiperidin-4-yl)methyl)-2-fluorophenyl)ethyl)amino)-7-methoxy-2-methylpyrido[2,3-d]pyrimidin-6-yl)cyclopropane-1-carbonitrile] | < 100 nM | < 50 nM | ≤ 1000 nM | < 500 nM | ≤ 1000 nM | < 500 nM
Cc1nc(N[C@H](C)c2cccc(C(F)(F)F)c2F)c2cc(N3CCS(=O)(=O)CC3)c(Cl)nc2n1 [Compound 257, (R)-4-(7-chloro-4-((1-(2-fluoro-3-(trtfluoromethyl)phenyl)ethyl)amino)-2-methylpyrido[2,3-d]pyrimidin-6-yl)thiomorpholine 1,1-dioxide] | < 100 nM | < 50 nM | ≤ 1000 nM | < 500 nM | ≤ 1000 nM | < 500 nM
Cc1nc(N[C@H](C)c2cccc(C(F)F)c2F)c2cc(C3CCS(=O)(=O)CC3)c(Cl)nc2n1 [Compound 389, (R)-4-(7-chloro-4-((1-(3-(difluoromethyl)-2-fluorophenyl)ethyl)amino)-2-methylpyrido[2,3-d]pyrimidin-6-yl)tetrahydro-2H-thiopyran 1,1-dioxide] | < 100 nM | < 50 nM | ≤ 1000 nM | < 500 nM | ≤ 1000 nM | < 500 nM
COc1nc2nc(C)nc(N[C@H](C)c3cccc(C(F)F)c3F)c2cc1C1CCN(C(=O)NC2COC2)CC1 [Compound 116, (R)-4-(4-((1-(3-(difluoromethyl)-2-fluorophenyl)ethyl)amino)-7-methoxy-2-methylpyrido[2,3-d]pyrimidin-6-yl)-N-(oxetan-3-yl)piperidine-1-carboxamide] | – | < 50 nM | ≤ 1000 nM | – | ≤ 1000 nM | –
COc1nc2nc(C)nc(N[C@H](C)c3cccc(C(F)F)c3F)c2cc1C1=CCS(=O)(=O)CC1 [Compound 127, (R)-4-(4-((1-(3-(difluoromethyl)-2-fluorophenyl)ethyl)amino)-7-methoxy-2-methylpyrido[2,3-d]pyrimidin-6-yl)-3,6-dihydro-2H-thiopyran 1,1-dioxide] | < 100 nM | < 50 nM | ≤ 1000 nM | < 500 nM | ≤ 1000 nM | < 500 nM
COc1nc2nc(C)nc(N[C@H](C)c3cccc(C(F)(F)CO)c3)c2cc1C1CCS(=O)(=O)CC1 [Compound 239, (R)-4-(4-((1-(3-(1,1-difluoro-2-hydroxyethyl)phenyl)ethyl)amino)-7-methoxy-2-methylpyrido[2,3-d]pyrimidin-6-yl)tetrahydro-2H-thiopyran 1,1-dioxide] | < 100 nM | < 50 nM | ≤ 1000 nM | < 500 nM | ≤ 1000 nM | < 500 nM
CCN1CCC(c2cc3c(N[C@H](C)c4cccc(C(F)(F)F)c4F)ncnc3nc2OC)CC1 [Compound 199, (R)-6-(1-ethylpiperidin-4-yl)-N-(1-(2-fluoro-3-(trifluoromethyl)phenyl)ethyl)-7-methoxypyrido[2,3-d]pyrimidin-4-amine] | < 100 nM | < 50 nM | ≤ 1000 nM | < 500 nM | ≤ 1000 nM | < 500 nM

Second part, the compound after the results:

IC50 [1, 4] | IC50 [1, 5] | IC50 [2, 6] | IC50 [2, 7] | IC50 [3, 8] | IC50 [3, 9] | SMILES
< 100 nM | < 50 nM | ≤ 1000 nM | < 500 nM | ≤ 1000 nM | < 500 nM | Cc1nc(N[C@H](C)c2cccc(C(F)F)c2F)c2cc(C3CCS(=O)(=O)CC3)c(OCCN(C)C)nc2n1 [Compound 145, (R)-4-(4-((1-(3-(difluoromethyl)-2-fluorophenyl)-ethyl)amino)-7-(2-(dimethylamino)ethoxy)-2-methylpyrido[2,3-d]pyrimidin-6-yl)tetrahydro-2H-thiopyran 1,1-dioxide]
< 100 nM | < 50 nM | 1000 to 10000 nM | – | ≤ 1000 nM | – | CCN1CCC(c2cc3c(N[C@H](C)c4cccc(C(F)F)c4F)nc(C)nc3nc2OCCN(C)C)CC1 [Compound 399, (R)-N-(1-(3-(difluoromethyl)-2-fluorophenyl)ethyl)-7-(2-(dimethylamino)ethoxy)-6-(1-ethylpiperidin-4-yl)-2-methylpyrido[2,3-d] pyrimidin-4-amine]
< 100 nM | < 50 nM | ≤ 1000 nM | < 500 nM | ≤ 1000 nM | < 500 nM | COc1nc2ncnc(N[C@H](C)c3cccc(C(F)(F)C4CCN(C(C)C)CC4)c3)c2cc1N1CCN(C(C)C)CC1 [Compound 421, (R)-N-(1-(3-(difluoro(1-isopropylpiperidin-4-yl)methyl)phenyl)ethyl)-6-(4-isopropylpiperazin-1-yl)-7-methoxypyrido[2,3-d] pyrimidin-4-amine]
< 100 nM | < 50 nM | ≤ 1000 nM | – | 1000 to 10000 nM | – | CNCCN1CCC(c2cc3c(N[C@H](C)c4cccc(C(F)F)c4F)nc(C)nc3nc2OC)CC1 [Compound 129, (R)-N-(1-(3-(difluoromethyl)-2-fluorophenyl)ethyl)-7-methoxy-2-methyl-6-(1-(2-(methyl-12-azaneyl)ethyl)piperidin-4-yl)pyrido[2,3-d]pyrimidin-4-amine]
< 100 nM | < 50 nM | ≤ 1000 nM | < 500 nM | ≤ 1000 nM | < 500 nM | Cc1nc(N[C@H](C)c2cccc(C(F)(F)C(C)(C)O)c2F)c2cc(C3(C#N)CC3)c(N3CCN(C(C)C)CC3)nc2n1 [Compound 244, (R)-1-(4-((1-(3-(1,1-difluoro-2-hydroxy-2-methylpropyl)-2-fluorophenyl)ethyl)amino)-7-(4-isopropylpiperazin-1-yl)-2-methylpyrido[2,3-d]pyrimidin-6-yl)cyclopropane-1-carbonitrile]
